Assay results from patent publication US20060052600A1, “Amino-functional chalcones” (priority 2002, published 2006).
In brackets after ≈: the same amount, converted by molar mass. Like-named read-outs stand apart in the source and are kept apart here.

Columns and labels:
[1] = test system: Plasmodium falciparum 3D7; assay: Plasmodium falciparum assay; format: cell-based
[2] = test system: DHODH (dihydroorotate dehydrogenase); assay: DHODH assay; format: biochemical; settings: test concentration not given
[3] = test system: panel of anaerobic bacteria (Bacteroides fragilis, Clostridium perfringens, Clostridium difficele); format: cell-based; settings: single concentration 100 μM
L. major promastigotes = assay: Leishmania promastigote assay; settings: read-out: IC50, effect on L. major
Plasmodium berghei K173 [4] = assay: Multiple intra venous administration in Plasmodium berghei K173 infected NMRI female mice; format: in vivo; settings: FIG. 7
Experimental: The doses stated were administered intra venously as solutions in a suitable vehicle.

Plasmodium berghei K173 [5] = assay: Multiple oral administrations in Plasmodium berghei K173 infected NMRI female mice; format: in vivo; settings: FIG. 8
[6] = Determination of solubility; format: physicochemical
Experimental: Solubility of the compounds was determined by preparing a saturated solution of compound in 0.3 M phosphate buffer (pH 7.4±0.3) in a brown glass tube. The suspensions were rotated slowly for 24 hours. Aliquots were centrifuged for 10 minutes at 14.000 rpm and supernatants were diluted in 40% (v/v) acetonitrile in water prior to HPLC analysis. Concentrations of analytes were quantified against a standard curve and used as term of solubility.
The HPLC-UV method used for the assessment of solubility is the same as used in the in vitro metabolism assay.

[7] = test system: Enterococcus faecalis ATCC29212; assay: MIC determination in broth microdilution assay
[8] = test system: Streptococcus pneumoniae #998 (clinical isolate); assay: MIC determination in broth microdilution assay
[9] = test system: Staphylococcus aureus ATCC29213; assay: MIC determination in broth microdilution assay
[10] = test system: Staphylococcus aureus ATCC33591 (resistant to methicillin); assay: MIC determination in broth microdilution assay
[11] = test system: Staphylococcus intermedius #2357 (clinical isolate); assay: MIC determination in broth microdilution assay
[12] = test system: Enterococcus faecium #17501 (vancomycin-resistant clinical isolate); assay: MIC determination in broth microdilution assay
Eschericia coli ESS = assay: MIC determination in broth microdilution assay
[13] = test system: Eschericia coli ATCC25922; assay: MIC determination in broth microdilution assay
[14] = Determination of metabolic stability (liver microsomes); format: in vitro ADME, rat; settings: for Metabolic turn-over (rat) in vitro: 20 μM, 15 min, 37° C.
Experimental: Samples were incubated for 15 min at 37° C. and the reactions were terminated by addition of equal volumes of acetonitrile. Blank incubations were performed at the same concentration but without addition of microsomes. Both blank and microsome-containing samples were made in […] of three. […] The fraction of compound metabolised during the 15 min of incubation was determined by comparison of blank and microsome-containing samples using a Waters Alliance 2690 separation module and Waters 996 PDA-detector (Waters. […] This was followed by a 5 minutes linear gradient to initial conditions, which were maintained for 5 min. The flow rate was 0.20 ml/min and injection volume 10 μl.

S. aureus ATCC29213 = assay: Killing curve determination (time-kill curve); format: cell-based, Staphylococcus aureus; settings: for bactericidal or bacteriostatic action (time-kill curve): CFU per ml at concentrations above the MIC; for MIC: S. aureus ATCC29213
[15] = test system: panel of non-fastidious bacteria (Gram-positive pathogens and Eschericia coli); assay: Activity against non-fastidious bacteria (panel, results in words)
Pharmacokinetic studies = format: in vivo, mice
From the text: Samples of serum were taken at defined timepoints.
The supernatant was used for the analysis.

[16] = test system: Plasmodium falciparum 7G8(Cq-res); assay: Plasmodium falciparum assay, resistant strain; format: cell-based; settings: 7G8, read-out: Plasmodium falciparum IC50, 7G8(Cq-res)
[17] = test system: Plasmodium falciparum K1(Cq-res); assay: Plasmodium falciparum assay, resistant strain; format: cell-based; settings: K1, read-out: Plasmodium falciparum IC50, K1(Cq-res)
[18] = test system: Plasmodium falciparum DD2 (Cq-res); assay: Plasmodium falciparum assay, resistant strain; format: cell-based; settings: DD2, read-out: Plasmodium falciparum IC50, DD2 (Cq-res)
[19] = Table 2, read-out: IC50, activity against Plasmodium falciparum 3D7

Compound: CN(Cc1ccccc1C(=O)/C=C/c1ccc(Cl)cc1Cl)C(C)(C)C [A035, (E)-1-{2-[(tert-Butyl-methyl-amino)-methyl]-phenyl}-3-(2,4-dichloro-phenyl)-propenone]
- IC50 [1, 19]: 900 nM
- Inhibition of DHODH [2]: 26%

Compound: C=CC(C)(C)c1ccc(OC)c(/C=C/C(=O)c2ccccc2CN(C)C)c1 [A034, (E)-3-[5-(1,1-Dimethyl-allyl)-2-methoxy-phenyl]-1-(2-dimethylaminomethyl-phenyl)-propenone]
- activity against anaerobic bacteria [3]: activity against all microorganisms within the test panel
- IC50 (L. major promastigotes): 900 nM

Compound: CN(C)Cc1ccccc1C(=O)/C=C/c1ccc(Cl)cc1Cl [A027, (E)-3-(2,4-Dichloro-phenyl)-1-(2-dimethylaminomethyl-phenyl)-propenone]
- parasitaemia, multiple intra venous administrations (Plasmodium berghei K173 [4]): significant decrease in the parasitaemia
- parasitaemia, multiple oral administrations (Plasmodium berghei K173 [5]): significant decrease in the parasitaemia

Compound: CN(C)Cc1cccc(/C=C/C(=O)c2ccccc2CN(C)C)c1 [A066, (E)-3-(3-Dimethylaminomethyl-phenyl)-1-(2-dimethylaminomethyl-phenyl)-propenone]
- Solubility in aqueous buffer at pH 7.4 ([6]; 0.3 M phosphate buffer, 24 hours): 7.4 mg/ml
- IC50 [1, 19]: 900 nM

Compound: CN(C)CCCNCc1cccc(C(=O)/C=C/c2ccc(Cl)cc2Cl)c1 [A022, (E)-3-(2,4-Dichloro-phenyl)-1-{3-[(3-dimethylamino-propylamino)-methyl]-phenyl}-propenone]
- MIC, D: Enterococcus faecalis ATCC29212 [7]: 18.8 µM (≈ 7.36 µg/mL)
- MIC, F: Streptococcus pneumoniae #998 [8]: 18.8 µM (≈ 7.36 µg/mL)
- MIC, A: Staphylococcus aureus ATCC29213 [9]: 37.5 µM (≈ 14.7 µg/mL)
- MIC, B: Staphylococcus aureus ATCC33591 [10]: 37.5 µM (≈ 14.7 µg/mL)
- MIC, C: Staphylococcus intermedius #2357 [11]: 37.5 µM (≈ 14.7 µg/mL)
- Inhibition of DHODH [2]: 28%
- MIC, E: Enterococcus faecium #17501 [12]: 18.8 µM (≈ 7.36 µg/mL)
- MIC, H: Eschericia coli ESS (Eschericia coli ESS): 18.8 µM (≈ 7.36 µg/mL)
- MIC, G: Eschericia coli ATCC25922 [13]: 18.8 µM (≈ 7.36 µg/mL)

Compound: CCCCN(CCCC)c1ccc(/C=C/C(=O)c2cccc(CN(C)C)c2)cc1 [A019, (E)-3-(4-Dibutylamino-phenyl)-1-(3-dimethylaminomethyl-phenyl)-propenone]
- MIC, D: Enterococcus faecalis ATCC29212 [7]: 9.4 µM (≈ 3.69 µg/mL)
- MIC, F: Streptococcus pneumoniae #998 [8]: 18.8 µM (≈ 7.38 µg/mL)
- MIC, A: Staphylococcus aureus ATCC29213 [9]: 9.4 µM (≈ 3.69 µg/mL)
- Metabolic turn-over (rat) in vitro [14]: 5%
- bactericidal or bacteriostatic action (time-kill curve) (S. aureus ATCC29213): bactericidal
- MIC (S. aureus ATCC29213): 9.4 µM (≈ 3.69 µg/mL)
- dependence of the bactericidal action (S. aureus ATCC29213; time-kill curve): primarily dependent on incubation time
- MIC, B: Staphylococcus aureus ATCC33591 [10]: 9.4 µM (≈ 3.69 µg/mL)
- MIC, C: Staphylococcus intermedius #2357 [11]: 9.4 µM (≈ 3.69 µg/mL)
- MIC, E: Enterococcus faecium #17501 [12]: 9.4 µM (≈ 3.69 µg/mL)
- potency against Gram-positive pathogens in comparison with Licochalcone A ([15]; Gram-positive pathogens): increased potency
- MIC, H: Eschericia coli ESS (Eschericia coli ESS): 18.8 µM (≈ 7.38 µg/mL)
- activity against the ESS strain of E. coli (Eschericia coli ESS): considerable activity

Compound: O=C(/C=C/c1ccc(Cl)cc1Cl)c1ccccc1CN1CCNCC1 [A048, (E)-3-(2,4-Dichloro-phenyl)-1-(2-piperazin-1-ylmethyl-phenyl)-propenone]
- bioavailability (Pharmacokinetic studies; mice): 34%

Compound: CN(C)CCN(C)Cc1ccccc1C(=O)/C=C/c1ccc(Cl)cc1Cl [A038, (E)-3-(2,4-Dichloro-phenyl)-1-(2-{[(2-dimethylamino-ethyl)-methyl-amino]-methyl}-phenyl)-propenone]
- activity against anaerobic bacteria [3]: activity against all microorganisms within the test panel
- Inhibition of DHODH [2]: 22%
- IC50 (L. major promastigotes): 800 nM

Compound: CCN(CC)CCCC(C)Nc1ccnc2cc(Cl)ccc12 (stereo not shown) [Chloroquine]
- IC50 [16]: 1090 nM
- IC50 [17]: > 1560 nM
- IC50 [18]: 1000 nM
- IC50 ([1]; Plasmodium falciparum, 3D7, read-out: Plasmodium falciparum IC50, 3D7(Cq-sen)): 130 nM

Compound: COc1ccc(-c2ccccc2)cc1/C=C/C(=O)c1cccc(CN(C)C)c1 [A100, (E)-1-(3-Dimethylaminomethyl-phenyl)-3-(4-methoxy-biphenyl-3-yl)-propenone]
- IC50 (L. major promastigotes): 200 nM

Compound: C=CC(C)(C)c1cc(/C=C/C(=O)c2ccc(O)cc2)c(OC)cc1O [LicA, Licochalcone A, reference compound]
- MIC, D: Enterococcus faecalis ATCC29212 [7]: 37.5 µM (≈ 12.7 µg/mL)
- MIC, F: Streptococcus pneumoniae #998 [8]: 75.0 µM (≈ 25.4 µg/mL)
- MIC, A: Staphylococcus aureus ATCC29213 [9]: 37.5 µM (≈ 12.7 µg/mL)
- metabolic turn-over in vitro [14]: 100%
- Metabolic turn-over (rat) in vitro [14]: 100%
- t½ in vivo (Pharmacokinetic studies; in vivo, species not given): 10 min
- MIC, B: Staphylococcus aureus ATCC33591 [10]: 37.5 µM (≈ 12.7 µg/mL)
- aqueous solubility ([6]; pH 7.4): approximately 0.01 mg/ml
- IC50 [1, 19]: 6400 nM
- MIC, C: Staphylococcus intermedius #2357 [11]: 37.5 µM (≈ 12.7 µg/mL)
- Inhibition of DHODH [2]: 25%
- MIC, E: Enterococcus faecium #17501 [12]: 37.5 µM (≈ 12.7 µg/mL)
- activity against Gram-negative bacterium Eschericia coli [15]: only modest or no activity
- activity against common pathogenic Gram-positive non-fastidious bacteria ([15]; also against antibiotic resistant bacteria): moderate bactericidal activity
- MIC, H: Eschericia coli ESS (Eschericia coli ESS): 300.0 µM (≈ 102 µg/mL)
- IC50 (L. major promastigotes): 4600 nM

Compound: CCN(CC)Cc1cccc(C(=O)/C=C/c2ccc(Cl)cc2Cl)c1 [A063, (E)-3-(2,4-Dichloro-phenyl)-1-(3-diethylaminomethyl-phenyl)-propenone]
- activity against anaerobic bacteria [3]: activity against all microorganisms within the test panel
- IC50 (L. major promastigotes): 900 nM

Compound: COc1ccc(-c2ccccc2)cc1/C=C/C(=O)c1ccc(CCN(C)C)cc1 [A117, (E)-1-[4-(2-Dimethylamino-ethyl)-phenyl]-3-(4-methoxy-biphenyl-3-yl)-propenone]
- MIC, D: Enterococcus faecalis ATCC29212 [7]: 37.5 µM (≈ 14.5 µg/mL)
- MIC, F: Streptococcus pneumoniae #998 [8]: 37.5 µM (≈ 14.5 µg/mL)
- MIC, A: Staphylococcus aureus ATCC29213 [9]: 9.4 µM (≈ 3.62 µg/mL)
- MIC, B: Staphylococcus aureus ATCC33591 [10]: 9.4 µM (≈ 3.62 µg/mL)
- MIC, C: Staphylococcus intermedius #2357 [11]: 9.4 µM (≈ 3.62 µg/mL)
- MIC, E: Enterococcus faecium #17501 [12]: 37.5 µM (≈ 14.5 µg/mL)
- MIC, H: Eschericia coli ESS (Eschericia coli ESS): 9.4 µM (≈ 3.62 µg/mL)
- MIC, G: Eschericia coli ATCC25922 [13]: 150 µM (≈ 57.8 µg/mL)

Compound: COc1ccc(C(=O)/C=C/c2ccccc2)cc1 [4′MC, 4′methoxy chalcone, reference compound]
- solubility at 24 h ([6]; 0.3 M phosphate buffer, pH 7.4, aqueous buffer, thermodynamic from solid): < 50 µg/mL
- IC50 ([1]; Plasmodium falciparum, 3D7, Table 2, read-out: IC50, activity against Plasmodium falciparum 3D7): 40000 nM
- Inhibition of DHODH [2]: 7%
- antibacterial effect [15]: no antibacterial effect at all
- IC50 (L. major promastigotes; Leishmania major): 5600 nM

Compound: CCCCN(CCCC)c1ccc(/C=C/C(=O)c2ccccc2CN2CCN(C)CC2)cc1 [A031, (E)-3-(4-Dibutylamino-phenyl)-1-[2-(4-methyl-piperazin-1-ylmethyl)-phenyl]-propenone]
- bactericidal or bacteriostatic action (time-kill curve) (S. aureus ATCC29213): bactericidal
- MIC (S. aureus ATCC29213): 9.4 µM (≈ 4.21 µg/mL)
- activity against the ESS strain of E. coli (Eschericia coli ESS): considerable activity
